The values that follow come from US11897862B2 (Gilead Sciences, Inc., priority 2022, dated 2024).

A value given as a limit tells only on which side of the number the result lay.

The target of one assay is T1, IKZF1 (Homo sapiens, UniProt Q13422+Q96SW2).
T1 construct: expressed in transfected cells
Briefly: HEK293 HiBiT in vitro degradation of IKZF1. As to conditions: for DC50 / IKZF1 Dmax: HEK293 HiBiT; for DC50: 18-24 hr incubation, normalized to DMSO control, read-out: IKZF1 EC50; for Dmax: HEK293, HEK293 HiBiT; for Dmax / IKZF1 Dmax: maximum degradation at the highest concentration tested. It is filed as cell-based. How it is done: (§1) In vitro degradation of IKZF1, IKZF2, and SALL4 was measured using HiBiT protein tagging and detection technology (Promega).
(§2) HiBit technology was used to develop the quantitative assays to measure the cellular IKZFs level by tagging an 11 amino acid HiBit peptides […] to the protein of interest. Reporter plasmids were generated by fusing a linker sequence ([…]) followed by the HiBit tag at the C-terminus of IKZF1, IKZF2, and SALL4. The fusion fragments were subsequently cloned into pcDNA5 pcDNA™5/FRT/TO plasmids (Thermo Fisher, cat #V652020) downstream of the tetracycline operator. The resulting plasmids were co-transfected with pOG44 Flp-Recombinase Expression Vector (Thermo Fisher, cat #V600520) into Flp-In™ T-REx HEK293 line (Thermo Fisher, cat #R78077) and a stable cell pool was selected by adding 100 µg/ml of Hygromycin (Thermo Fisher, cat #10687010). The reporter cell enabled Tet-On inducible reporter expression from a single copy of the integrated gene.
(§3) On Day 1, Cells were grown to ˜80% confluency in tissue culture medium (DMEM Glutamax (Gibco10569), 10% Tet free FBS (Takara 631106), and PenStrep Glutamin (Gibco 10378)) in tissue culture flasks. Doxycycline was then added to a final concentration of […] to induce reporter expression at 37° C. overnight.
(§4) On Day 2, 125 nL of serially-diluted solution of testing compounds were dispensed into 384-well white solid assay plates via ECHO acoustic liquid handler. Cells were lifted by 0.25% Trypsin (Gibco 25200) then pelleted by centrifugation (Beckman Avanti J-E) at 500×g for 5 min. Cell pellets were resuspended in TC medium at the concentration of 3e5/mL and 25 μL of cell suspension were added into each well of compound-spotted plates. The plates were returned to a 37° C. incubator overnight (18-24 hr).
(§5) On Day 3, assay plates were removed from the tissue culture incubator and 25 μL of Nano-Glo lytic detection system (Promega, cat #N3030) was added to each well. Plates were incubated at r.t. for 3 min with shaking, and luminescence was read using an Envision reader (Perkin Elmer).
(§6) To assess the IKZF1, IKZF2, and SALL4 degrader potential of exemplified compounds of this disclosure and certain Reference Compounds EC50 and Dmax values were determined for the compounds of Examples 1 to 383 and Reference Compounds A-1, B-1, B-2, B-3, B-4, and C-1 in the HiBiT assays. Asterisks (*) indicate examples for which the data shown represents an average of n≥3.
For orientation: The HiBiT peptide binds its large partner to form an active luciferase.

For another assay, the target named is IKZF2 (Homo sapiens, UniProt Q96SW2+Q9UKS7). Briefly: HEK293 HiBiT in vitro degradation of IKZF2. The format is cell-based. Details: expressed in transfected cells. To be noted: for Dmax: HEK293, HEK293 HiBiT; for Dmax / IKZF2 Dmax: maximum degradation at the highest concentration tested; for DC50 / IKZF2 Dmax: HEK293 HiBiT; for DC50: 18-24 hr incubation, normalized to DMSO control, read-out: IKZF2 EC50. How it is done: as §1, §2, §3, §4, §5, §6
Chain of IKZF2 (Q9UKS7 1-500 isoform Q9UKS7-2): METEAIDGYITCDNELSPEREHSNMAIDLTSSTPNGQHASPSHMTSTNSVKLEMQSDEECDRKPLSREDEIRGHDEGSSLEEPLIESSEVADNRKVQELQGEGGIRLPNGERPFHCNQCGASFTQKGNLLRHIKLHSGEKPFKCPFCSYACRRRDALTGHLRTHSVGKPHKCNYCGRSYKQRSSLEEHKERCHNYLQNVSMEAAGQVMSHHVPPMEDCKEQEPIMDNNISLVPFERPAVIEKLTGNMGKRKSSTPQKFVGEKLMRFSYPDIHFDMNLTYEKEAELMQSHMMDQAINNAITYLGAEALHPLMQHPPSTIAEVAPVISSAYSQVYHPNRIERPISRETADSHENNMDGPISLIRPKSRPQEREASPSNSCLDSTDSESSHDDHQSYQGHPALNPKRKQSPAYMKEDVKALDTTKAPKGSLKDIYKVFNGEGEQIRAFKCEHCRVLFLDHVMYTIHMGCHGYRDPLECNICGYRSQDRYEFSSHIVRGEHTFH
Chain of IKZF2 (Q96SW2 whole entry): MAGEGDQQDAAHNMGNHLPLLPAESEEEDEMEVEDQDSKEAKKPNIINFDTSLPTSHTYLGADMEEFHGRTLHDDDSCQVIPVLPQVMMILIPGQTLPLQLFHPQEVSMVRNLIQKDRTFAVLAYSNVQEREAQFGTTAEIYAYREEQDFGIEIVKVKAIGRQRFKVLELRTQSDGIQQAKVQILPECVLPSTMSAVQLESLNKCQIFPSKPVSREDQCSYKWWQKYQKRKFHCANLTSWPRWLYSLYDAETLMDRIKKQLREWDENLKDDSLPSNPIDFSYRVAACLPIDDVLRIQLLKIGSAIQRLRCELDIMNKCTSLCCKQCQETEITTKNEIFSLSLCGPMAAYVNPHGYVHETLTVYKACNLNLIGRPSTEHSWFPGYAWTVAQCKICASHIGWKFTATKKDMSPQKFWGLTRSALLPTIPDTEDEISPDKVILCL
Chain of IKZF2 (Q16531 whole entry partner): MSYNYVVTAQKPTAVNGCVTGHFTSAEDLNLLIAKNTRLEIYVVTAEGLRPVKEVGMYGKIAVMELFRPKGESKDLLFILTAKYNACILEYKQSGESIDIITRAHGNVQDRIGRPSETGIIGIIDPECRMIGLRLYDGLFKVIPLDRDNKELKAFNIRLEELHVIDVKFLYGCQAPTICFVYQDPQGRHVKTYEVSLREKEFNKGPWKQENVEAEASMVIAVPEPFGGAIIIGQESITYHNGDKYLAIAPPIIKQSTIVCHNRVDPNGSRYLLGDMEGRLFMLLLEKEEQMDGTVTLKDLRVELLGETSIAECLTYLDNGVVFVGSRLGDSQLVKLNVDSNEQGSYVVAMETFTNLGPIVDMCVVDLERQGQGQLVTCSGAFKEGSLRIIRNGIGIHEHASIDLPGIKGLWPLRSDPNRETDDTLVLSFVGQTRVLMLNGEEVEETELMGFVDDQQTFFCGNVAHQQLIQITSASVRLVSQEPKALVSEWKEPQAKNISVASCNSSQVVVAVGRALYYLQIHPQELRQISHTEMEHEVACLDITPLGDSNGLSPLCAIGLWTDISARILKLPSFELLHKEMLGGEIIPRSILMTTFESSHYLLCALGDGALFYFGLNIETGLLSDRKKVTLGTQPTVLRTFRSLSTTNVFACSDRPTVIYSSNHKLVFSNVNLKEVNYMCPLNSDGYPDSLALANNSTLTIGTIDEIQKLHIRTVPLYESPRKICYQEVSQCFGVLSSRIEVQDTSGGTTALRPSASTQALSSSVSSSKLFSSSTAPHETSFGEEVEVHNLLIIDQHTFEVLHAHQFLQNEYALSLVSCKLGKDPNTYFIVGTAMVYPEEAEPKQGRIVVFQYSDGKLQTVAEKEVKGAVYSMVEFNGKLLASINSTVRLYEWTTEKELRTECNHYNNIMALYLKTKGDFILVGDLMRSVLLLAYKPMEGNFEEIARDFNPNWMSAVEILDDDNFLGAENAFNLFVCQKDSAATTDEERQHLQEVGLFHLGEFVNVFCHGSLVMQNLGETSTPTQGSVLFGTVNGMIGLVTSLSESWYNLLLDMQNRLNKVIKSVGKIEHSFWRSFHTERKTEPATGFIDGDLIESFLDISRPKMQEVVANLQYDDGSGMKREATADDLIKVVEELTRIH

T1 sequence (Q13422 whole entry): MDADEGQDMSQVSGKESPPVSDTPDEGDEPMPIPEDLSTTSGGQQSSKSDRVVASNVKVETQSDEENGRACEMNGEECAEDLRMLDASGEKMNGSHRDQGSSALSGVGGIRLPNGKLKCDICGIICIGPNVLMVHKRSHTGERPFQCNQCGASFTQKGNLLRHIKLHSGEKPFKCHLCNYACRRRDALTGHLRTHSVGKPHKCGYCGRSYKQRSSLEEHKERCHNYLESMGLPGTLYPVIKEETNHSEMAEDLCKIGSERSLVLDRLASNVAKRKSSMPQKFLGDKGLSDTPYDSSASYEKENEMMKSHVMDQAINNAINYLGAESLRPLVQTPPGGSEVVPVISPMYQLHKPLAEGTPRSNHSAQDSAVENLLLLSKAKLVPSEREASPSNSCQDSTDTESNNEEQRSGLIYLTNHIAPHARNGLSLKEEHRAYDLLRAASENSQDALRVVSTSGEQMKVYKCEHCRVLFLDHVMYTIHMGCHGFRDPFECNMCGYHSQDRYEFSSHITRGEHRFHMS
T1 sequence (Q96SW2 whole entry): as the sequence (Q96SW2 whole entry) above
T1 sequence (Q16531 whole entry partner): as the sequence (Q16531 whole entry partner) above

`O=C1CCC(N2Cc3cc(C[C@H]4CCCC[C@@H]4N[C@@H]4CCC(F)(F)C4)ccc3C2=O)C(=O)N1` (relative stereo) [Example 302, 3-(5-(((1R,2S)-rel-2-(((R)-3,3-difluorocyclopentyl)amino)cyclohexyl)methyl)-1-oxoisoindolin-2-yl)piperidine-2,6-dione]: the figures for the DC50 on IKZF1 and on IKZF2 were more than 1 µM and 0.015 µM, respectively. On IKZF2, this compound displayed a Dmax of 89%.
Take `C[C@@H]1CCCC[C@H]1N[C@H]1CCCC[C@@H]1Cc1ccc2c(c1)CN(C1CCC(=O)NC1=O)C2=O` (relative stereo) [Example 303]: the DC50 at IKZF1 is more than 1 µM. On IKZF2, the Dmax was 82% and the DC50 was 0.086 µM.
Taken in the same sequence, the figures for `O=C1CCC(N2Cc3cc(C[C@H]4CCC[C@H](O)[C@@H]4NC4CCCCC4)ccc3C2=O)C(=O)N1` (relative stereo) [Example 310, 3-(5-(((1R,2R,3S)-rel-2-(cyclohexylamino)-3-hydroxycyclohexyl)methyl)-1-oxoisoindolin-2-yl)piperidine-2,6-dione] were more than 0.5 µM, 90% and 0.027 µM.
Turning to `O=C1CCC(N2Cc3cc(C[C@H]4CCCC[C@@H]4NCc4ccccc4)ccc3C2=O)C(=O)N1` (single isomer, unassigned) [Example 25], the DC50 is more than 1 µM at IKZF1 and 0.023 µM at IKZF2.
In turn, `[2H]c1c([2H])c([2H])c(CN[C@H]2CCCC[C@@H]2Cc2ccc3c(c2)CN(C2CCC(=O)NC2=O)C3=O)c([2H])c1[2H]` (single isomer, unassigned) [Example 25] displayed a Dmax on IKZF2 of 87%.
For `O=C1CCC(N2Cc3cc(C[C@H]4CCCC[C@@H]4NCc4ccccc4)ccc3C2=O)C(=O)N1` (single isomer, unassigned) [Example 97], the DC50 on IKZF1 was 0.085 µM; at IKZF2 it was 0.036 µM.
In the case of `[2H]C([2H])(N[C@H]1CCCC[C@@H]1Cc1ccc2c(c1)CN(C1CCC(=O)NC1=O)C2=O)c1ccccc1` (single isomer, unassigned) [Example 97], the greatest degradation seen (Dmax) turned out to be 30% on IKZF1 and 92% at IKZF2.
With `O=C1CCC(N2Cc3cc(C[C@H]4CCCC[C@@H]4NCc4ccccc4)ccc3C2=O)C(=O)N1` (single isomer, unassigned) [Example 98], the values for the DC50 on IKZF1 and at IKZF2 were more than 1 µM and 0.041 µM, respectively.
`[2H]c1c([2H])c([2H])c(C([2H])([2H])N[C@H]2CCCC[C@@H]2Cc2ccc3c(c2)CN(C2CCC(=O)NC2=O)C3=O)c([2H])c1[2H]` (single isomer, unassigned) [Example 98] had a maximal degradation (Dmax) at IKZF2 of 87%.
As to `O=C1CCC(N2Cc3cc(C[C@H]4CCCC[C@@H]4NCc4ccccc4)ccc3C2=O)C(=O)N1` (single isomer, unassigned) [Example 120], the DC50 was 0.1 µM at IKZF1 and 0.033 µM on IKZF2.
`[2H]c1c([2H])c([2H])c(C([2H])N[C@H]2CCCC[C@@H]2Cc2ccc3c(c2)CN(C2CCC(=O)NC2=O)C3=O)c([2H])c1[2H]` (single isomer, unassigned) [Example 120]: the Dmax at IKZF1 turned out to be 29%; at IKZF2 it was 90%.
Consider `O=C1CCC(N2Cc3cc(C[C@H]4CCCC[C@@H]4NC4CCC(C(F)(F)F)CC4)ccc3C2=O)C(=O)N1` (single isomer, unassigned) [Example 121], for which, at IKZF1, the Dmax was 26% and the DC50 was found to be 0.068 µM. On IKZF2, the Dmax worked out at 97% and the DC50 was found to be 0.003 µM.
On to `O=C1CCC(N2Cc3cc(C[C@H]4CCCC[C@@H]4NC4CCC(OC(F)(F)F)CC4)ccc3C2=O)C(=O)N1` (single isomer, unassigned) [Example 146], for which, at IKZF1, the DC50 is 0.168 µM and the “IKZF1 Dmax” value is on record as 34%. Besides, on IKZF2, the DC50 came out at 0.002 µM and the “IKZF2 Dmax” value is 95%.
In the case of `O=C1CCC(N2Cc3cc(C[C@H]4CCC[C@H](O)[C@@H]4NC4CCC(F)(F)CC4)ccc3C2=O)C(=O)N1` (single isomer, unassigned) [Example 151], the DC50 on IKZF1 is more than 1 µM. In addition, at IKZF2, the Dmax stood at 87% and the DC50 came out at 0.022 µM.
Turning to `CC(C)OC1CCC(N[C@H]2CCCC[C@@H]2Cc2ccc3c(c2)CN(C2CCC(=O)NC2=O)C3=O)CC1` (single isomer, unassigned) [Example 167], at IKZF1, the Dmax came to 36% and the DC50 was determined as 0.077 µM. For the same compound, on IKZF2, the Dmax is 97% and the DC50 stood at 0.002 µM.
Take `CC(C)OC1CCC(N[C@H]2CCCC[C@@H]2Cc2ccc3c(c2)CN(C2CCC(=O)NC2=O)C3=O)CC1` (single isomer, unassigned) [Example 168]: on IKZF1, the DC50 turned out to be 0.246 µM and the “IKZF1 Dmax” value is 39%. Moreover, at IKZF2, the DC50 came out at 0.003 µM and the “IKZF2 Dmax” value is listed as 97%.
For the compound `CC(N[C@H]1CCCC[C@@H]1Cc1ccc2c(c1)CN(C1CCC(=O)NC1=O)C2=O)C1(F)CC1` (single isomer, unassigned) [Example 224], the DC50 on IKZF1 was more than 1 µM. Also, on IKZF2, the Dmax worked out at 96% and the DC50 stood at 0.002 µM.
For the compound `CC(N[C@H]1CCCC[C@@H]1Cc1ccc2c(c1)CN(C1CCC(=O)NC1=O)C2=O)C1(F)CC1` (single isomer, unassigned) [Example 225], the DC50 is more than 0.5 µM at IKZF1 and 0.011 µM on IKZF2. The “IKZF2 Dmax” value at IKZF2 turned out to be 94%.
For the compound `CC(N[C@H]1CCCC[C@@H]1Cc1ccc2c(c1)CN(C1CCC(=O)NC1=O)C2=O)C(C)(C)F` (single isomer, unassigned) [Example 226], on IKZF1, the Dmax was 84% and the DC50 is 0.017 µM. In addition, at IKZF2, the Dmax was found to be 93% and the DC50 worked out at 0.014 µM.
As to `CC(N[C@H]1CCCC[C@@H]1Cc1ccc2c(c1)CN(C1CCC(=O)NC1=O)C2=O)C(C)(C)F` (single isomer, unassigned) [Example 227], the values for the DC50 on IKZF1 and at IKZF2 were more than 0.5 µM and 0.02 µM, respectively. For the same compound, the “IKZF2 Dmax” value at IKZF2 came to 86%.
Regarding `CC(CC1CC1)N[C@H]1CCCC[C@@H]1Cc1ccc2c(c1)CN(C1CCC(=O)NC1=O)C2=O` (single isomer, unassigned) [Example 230], at IKZF1, the Dmax came out at 30% and the DC50 was found to be 0.066 µM. At IKZF2, the greatest degradation seen (Dmax) is 96% and the DC50 was 0.003 µM.
On to `CC(CC1CC1)N[C@H]1CCCC[C@@H]1Cc1ccc2c(c1)CN(C1CCC(=O)NC1=O)C2=O` (single isomer, unassigned) [Example 231], for which the DC50 at IKZF1 was more than 1 µM. On IKZF2, the DC50 amounted to 0.003 µM and the “IKZF2 Dmax” value came to 96%.
In the case of `CCC(N[C@H]1CCCC[C@@H]1Cc1ccc2c(c1)CN(C1CCC(=O)NC1=O)C2=O)C1CC1` (single isomer, unassigned) [Example 232], the DC50 at IKZF1 is more than 1 µM. For the same compound, at IKZF2, the Dmax is 93% and the DC50 was determined as 0.021 µM.
On to `CCC(N[C@H]1CCCC[C@@H]1Cc1ccc2c(c1)CN(C1CCC(=O)NC1=O)C2=O)C1CC1` (single isomer, unassigned) [Example 233], for which, on IKZF1, the DC50 is more than 1 µM. For the same compound, at IKZF2, the DC50 worked out at 0.003 µM and the “IKZF2 Dmax” value was 97%.
Consider `CC(N[C@H]1CCCO[C@@H]1Cc1ccc2c(c1F)CN(C1CCC(=O)NC1=O)C2=O)C1CCC1` (single isomer, unassigned) [Example 248], for which the DC50 at IKZF1 was more than 1 µM. On IKZF2, the DC50 stood at 0.021 µM and the “IKZF2 Dmax” value amounted to 92%.
With `CC(CC(F)(F)F)N[C@H]1CCCC[C@@H]1Cc1ccc2c(c1)CN(C1CCC(=O)NC1=O)C2=O` (single isomer, unassigned) [Example 249], on IKZF1, the DC50 is more than 1 µM. Further, at IKZF2, the Dmax came to 97% and the DC50 is 0.004 µM.
For `CC(N[C@H]1CCCC[C@@H]1Cc1ccc2c(c1)CN(C1CCC(=O)NC1=O)C2=O)C1CCCO1` (single isomer, unassigned) [Example 253] the same measures were more than 1 µM, 96% and 0.009 µM.
Turning to `CC(N[C@H]1CCCC[C@@H]1Cc1ccc2c(c1)CN(C1CCC(=O)NC1=O)C2=O)C1CCCO1` (single isomer, unassigned) [Example 254], the DC50 on IKZF1 was more than 1 µM; on IKZF2, 0.033 µM. The “IKZF2 Dmax” value at IKZF2 is on record as 84%.

What is called Dmax is the largest share of the target that was removed.
